Experimental data taken from article PMC9230455 (Pharmaceuticals, 2022).
Each block holds one compound with its values, some of them ahead of it.

How the values were obtained:
[1] = tested on: impaired glucose tolerance (IGT) mice; assay: Oral glucose tolerance test in impaired glucose tolerance (IGT) mice; format: in vivo, mouse; design: AUC of Day 1, Blood glucose level (120 min): unit not given beside the values; details: for Blood Glucose Value of 30 min: 30 min after 2.5 g/kg glucose gavage; for Blood Glucose Value of 30 min / Blood Glucose Value of 60 min / Blood Glucose Value of 90 min / Blood Glucose Value of 120 min / Fasting Blood Glucose Level: M ± SD, n = 8; for Blood Glucose Value of 60 min: 60 min after 2.5 g/kg glucose gavage; for Blood Glucose Value of 90 min: 90 min after 2.5 g/kg glucose gavage; for Blood Glucose Value of 120 min: 120 min after 2.5 g/kg glucose gavage
Procedure: After in vitro experiments were conducted to investigate the DPP-4 inhibition ability and receptor affinity of GLP-1RAs, further in vivo experiments were conducted to compare the hypoglycemic effects of GLP-1RAs on impaired glucose tolerance (IGT) mice. The model of IGT mice was established by a one-week injection of streptozotocin, compared with the normal glucose tolerance (NGT) group, the increase in blood glucose in the IGT group after intragastric glucose administration was statistically significant, and the increase in blood glucose in each experimental group was similar after grouping (as shown in Table A2). Each group was fasted for 9 h before the last administration, fasting blood glucose (FBG) was measured one hour after administration, and then an oral glucose tolerance test (OGTT) was performed.
After fasting for 9 h, the OGTT was performed again the next day. The duration of GLP-1RAs was measured using the second day’s OGTT. […] The blood glucose level of the G1 group was lower than that of the vehicle group at each time point, and the difference was statistically significant. […] The blood sugar of IGT mice can be well controlled at a level equivalent to that of NGT mice, and the effect time of the drug was more than 24 h.
Male KM mice age 6–8 weeks with weight of 18–25 g were selected and injected with STZ at a dose of 40 mg/kg per mouse to establish mouse model of IGT. One week after the injection, OGTT was performed. Blood was collected from the tail tip of each mouse to measure the blood glucose concentration. Mice with blood glucose level increase greater than 200% after intragastric administration of glucose were selected. […] The NGT and vehicle groups were treated with normal saline, and the other groups were treated with the corresponding protein solution diluted to 20 µmol/L with normal saline. Each mouse was injected with 25 µL/10 g body weight. The FBG of each group was measured one hour after the last administration, and then 2.5 g/kg glucose solution was administered by gavage immediately, and blood glucose was measured at 30, 60, 90, and 120 min after gavage. The FBG was measured the same time the next day, and the glucose solution was administered by gavage again at 2.5 g/kg. Blood glucose was measured 30, 60, 90, and 120 min after gavage. The statistical software GraphPad Prism 8.0, was used to process the data. The blood glucose level at each time point was compared between the groups using two-way analysis of variance. p < 0.05 was considered statistically different.

[2] = molecular target: dipeptidyl peptidase-4 (DPP-4) (UniProt P27487)
[3] = first day OGTT, 20 µmol/L protein, 25 µL/10 g injected

UniProt P27487, sequence (P27487 whole entry): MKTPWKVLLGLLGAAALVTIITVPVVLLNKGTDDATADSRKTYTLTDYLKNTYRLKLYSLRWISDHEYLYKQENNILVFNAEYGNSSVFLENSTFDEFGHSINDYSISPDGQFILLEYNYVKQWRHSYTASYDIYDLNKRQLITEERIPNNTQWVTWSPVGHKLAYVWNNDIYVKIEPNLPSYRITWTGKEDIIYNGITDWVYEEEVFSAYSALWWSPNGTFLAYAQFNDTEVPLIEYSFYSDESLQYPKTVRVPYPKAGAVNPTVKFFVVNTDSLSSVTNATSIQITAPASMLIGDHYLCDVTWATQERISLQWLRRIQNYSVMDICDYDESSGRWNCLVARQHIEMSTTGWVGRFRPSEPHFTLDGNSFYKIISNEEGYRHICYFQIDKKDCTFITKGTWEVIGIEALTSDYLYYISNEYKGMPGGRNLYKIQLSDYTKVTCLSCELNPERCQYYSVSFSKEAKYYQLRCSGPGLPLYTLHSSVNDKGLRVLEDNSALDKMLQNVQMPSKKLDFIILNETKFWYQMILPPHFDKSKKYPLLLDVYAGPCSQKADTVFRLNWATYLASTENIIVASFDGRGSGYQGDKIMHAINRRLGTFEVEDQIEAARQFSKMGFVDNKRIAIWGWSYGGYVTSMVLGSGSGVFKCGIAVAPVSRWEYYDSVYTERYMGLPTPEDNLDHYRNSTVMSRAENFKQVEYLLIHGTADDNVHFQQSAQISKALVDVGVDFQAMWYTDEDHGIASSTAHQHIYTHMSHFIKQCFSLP

Compound: CC[C@H](C)[C@H](NC(=O)[C@H](Cc1ccccc1)NC(=O)[C@H](CCC(=O)O)NC(=O)[C@H](CCCCN)NC(=O)[C@H](C)NC(=O)[C@H](C)NC(=O)[C@H](CCC(N)=O)NC(=O)CNC(=O)[C@H](CCC(=O)O)NC(=O)[C@H](CC(C)C)NC(=O)[C@H](Cc1ccc(O)cc1)NC(=O)[C@H](CO)NC(=O)[C@H](CO)NC(=O)[C@@H](NC(=O)[C@H](CC(=O)O)NC(=O)[C@H](CO)NC(=O)[C@@H](NC(=O)[C@H](Cc1ccccc1)NC(=O)[C@@H](NC(=O)CNC(=O)[C@H](CCC(=O)O)NC(=O)[C@H](C)NC(=O)[C@@H](N)Cc1c[nH]cn1)[C@@H](C)O)[C@@H](C)O)C(C)C)C(=O)N[C@@H](C)C(=O)N[C@@H](Cc1c[nH]c2ccccc12)C(=O)N[C@@H](CC(C)C)C(=O)N[C@H](C(=O)N[C@@H](CCCCN)C(=O)NCC(=O)N[C@@H](CCCNC(=N)N)C(N)=O)C(C)C [GLP-1, Glucagon-like peptide-1]
- AUC of Day 1, Blood glucose level (120 min) ([1]; first day OGTT in IGT mice, 0-120 min, vehicle 60.54, NGT 40.57): 47.54
- Blood Glucose Value of 30 min [1, 3]: 18.2 ± 1.9 mmol/L
- Blood Glucose Value of 60 min [1, 3]: 13.6 ± 1.7 mmol/L
- Blood Glucose Value of 90 min [1, 3]: 9.3 ± 2.3 mmol/L
- Blood Glucose Value of 120 min [1, 3]: 7.9 ± 1.3 mmol/L
- Fasting Blood Glucose Level ([1]; first day, IGT mice (STZ, male KM), fasted 9 h, one hour after last administration, 20 µmol/L protein, 25 µL/10 g injected): 4.9 ± 0.7 mmol/L
- Fasting Blood Glucose Level ([1]; second day (no new dose), IGT mice fasted 9 h): 5.9 ± 1.1 mmol/L
- Blood Glucose Value of 30 min ([1]; second day OGTT): 25.1 ± 4.1 mmol/L
- Blood Glucose Value of 60 min ([1]; second day OGTT): 18.2 ± 3.4 mmol/L
- Blood Glucose Value of 90 min ([1]; second day OGTT): 11.6 ± 1.9 mmol/L
- Blood Glucose Value of 120 min ([1]; second day OGTT): 9.2 ± 1.3 mmol/L

Compound: G1 (GLP-1 receptor agonist: GLP-1 Val33Cys, linker GCGGGGGG, antiparallel β lamellar domain of superoxide dismutase at the C-terminus) (designed binder)
- Area Under Curve of the residual percentage (ELISA) during digestion with excess DPP-4, up to 24 h, 30 °C, PBS pH 7.4 [2]: 5.14

Second part, the compound after the results:

- Area Under Curve of the residual percentage (ELISA) during digestion with excess DPP-4, up to 24 h, 30 °C, PBS pH 7.4 [2]: 1.34
Compound: G2 (GLP-1 receptor agonist: antiparallel β lamellar domain of superoxide dismutase at the amino terminus of GLP-1) (designed binder)

- Area Under Curve of the residual percentage (ELISA) during digestion with excess DPP-4, up to 24 h, 30 °C, PBS pH 7.4 [2]: 2.47
Compound: G4 (GLP-1 receptor agonist: GLP-1 Ser18Cys with the antiparallel β lamellar domain of superoxide dismutase at the C-terminus, without the linker) (designed binder)

- Area Under Curve of the residual percentage (ELISA) during digestion with excess DPP-4, up to 24 h, 30 °C, PBS pH 7.4 [2]: 1.02
Compound: human GLP-1 (glucagon-like peptide-1)
